This passage reports GI50 and TGI results from PubChem BioAssay (NCI).

The structures appear in SMILES notation. Several values for one entry are separate records, joined by “and”; a condition that tells them apart may be missing. Equal entries are not always repeated.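 48-hour exposure; five concentrations; linearly interpolated endpoints. GI50 = concentration required for 50% inhibition of growth. The concentration for full growth arrest is given as TGI.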 Some results are limits rather than exact numbers.

Some test systems named below: CCRF-CEM leukemia; LOX IMVI melanoma; EKVX NSCLC; SF-295 CNS; UO-31 renal; KM12 colon; SK-MEL-28 melanoma; OVCAR-8 ovarian; 786-0 renal; OVCAR-4 ovarian.
What all share (assay): NCI tumour cell line growth inhibition, 48 h

Take `CC(C)C[C@@H](NC(=O)[C@@H](Cc1ccccc1)NC(=O)c1cnccn1)B1O[C@H]2[C@H](O)[C@@H](C(=O)NCCCC[C@@H]3NC(=O)[C@@H](Cc4ccccc4)NC(=O)[C@H](CC(=O)O)NC(=O)CNC(=O)[C@H](CCCN=C(N)N)NC3=O)O[C@@H](CN)[C@H]2O1`: the GI50 is 0.00347 µM and 0.005 µM with CCRF-CEM leukemia; 0.00397 µM and 0.005 µM with LOX IMVI melanoma; 0.0239 µM and 0.0171 µM in the assay with EKVX NSCLC; 0.00486 µM and 0.005 µM in the assay on SF-295 CNS; 0.00868 µM and 0.005 µM with UO-31 renal; 0.0131 µM and 0.0057 µM in the assay on KM12 colon. Besides, the GI50 was 0.00766 µM and 0.005 µM in the assay with SK-MEL-28 melanoma; 0.0365 µM and 0.0139 µM with OVCAR-8 ovarian; 0.00465 µM and 0.005 µM with 786-0 renal; 0.00935 µM and 0.005 µM in the assay with OVCAR-4 ovarian. For the same molecule, the TGI in the assay with LOX IMVI melanoma was 0.0159 µM and 0.0058 µM; in the assay with EKVX NSCLC it was 0.568 µM and 0.545 µM; in the assay with SF-295 CNS it was 0.02 µM and 0.0147 µM; in the assay with UO-31 renal, 0.089 µM and 0.036 µM; with KM12 colon it was 0.0437 µM and 0.0177 µM; with SK-MEL-28 melanoma, 0.285 µM and 0.235 µM. In addition, the TGI in the assay on OVCAR-8 ovarian was 0.622 µM and 0.0987 µM; in the assay on OVCAR-4 ovarian, 0.451 µM and 1.09 µM.

Regarding `COc1ccc(C(=O)/C=C/c2ccc(O)c(O)c2F)c(OC)c1`, the TGI was 6.5 µM in the assay on CCRF-CEM leukemia; 20.3 µM and 20.4 µM in the assay with LOX IMVI melanoma; 30.3 µM and 28.9 µM in the assay with EKVX NSCLC; 26.3 µM and 34.4 µM with SF-295 CNS; 16.3 µM and 38.4 µM with UO-31 renal; 27.8 µM and 23.9 µM in the assay with KM12 colon. Moreover, the TGI with SK-MEL-28 melanoma was 33.4 µM and 30.7 µM; with OVCAR-8 ovarian, 65.5 µM and > 100 µM; with 786-0 renal it was 31.3 µM and 17.1 µM; in the assay on OVCAR-4 ovarian, 75 µM and > 100 µM. Also, the GI50 in the assay with LOX IMVI melanoma was 4.95 µM; in the assay with EKVX NSCLC, 10.9 µM; in the assay with SF-295 CNS it was 10.9 µM; in the assay with UO-31 renal, 7.04 µM; with SK-MEL-28 melanoma, 11.6 µM; in the assay on OVCAR-8 ovarian, 8.81 µM. Also, the GI50 in the assay on 786-0 renal was 1.88 µM; in the assay on OVCAR-4 ovarian it was 9.3 µM.

In the case of `O=P(c1ccccc1)(c1ccccc1)C1CC=C(c2ccccc2)C2(CCCC2)C1` (stereo unspecified), the TGI is more than 100 µM with CCRF-CEM leukemia; more than 100 µM in the assay on LOX IMVI melanoma; more than 100 µM with EKVX NSCLC; more than 100 µM with SF-295 CNS; 75.3 µM with UO-31 renal; more than 100 µM in the assay on KM12 colon. For the same molecule, the TGI in the assay on SK-MEL-28 melanoma, in the assay on OVCAR-8 ovarian, in the assay on 786-0 renal and with OVCAR-4 ovarian was more than 100 µM throughout.

In the case of `CN(C)CCCCN1CCc2c(n(C)c3ccccc23)C1=O`, the TGI in the assay with CCRF-CEM leukemia was more than 100 µM; in the assay with LOX IMVI melanoma, > 72.9 µM and 42.8 µM; in the assay on EKVX NSCLC it was 85.9 µM and > 100 µM; with SF-295 CNS, 71.9 µM and 49.6 µM; in the assay with UO-31 renal, > 76.3 µM and 46.7 µM; with KM12 colon, more than 92.7 µM. The TGI in the assay with SK-MEL-28 melanoma was 39.7 µM and 31.4 µM; with OVCAR-8 ovarian, more than 100 µM; in the assay on 786-0 renal, > 79.7 µM and 49.4 µM; in the assay with OVCAR-4 ovarian, more than 100 µM.

`CCC1=C(C)/C(=C/c2[nH]c(C)c(C(=O)CCCCC(=O)OC)c2C)N=C1c1ccc[nH]1`: the GI50 is 0.204 µM in the assay with CCRF-CEM leukemia; 2.89 µM in the assay with LOX IMVI melanoma; 12.2 µM in the assay on EKVX NSCLC; 18.6 µM with SF-295 CNS; 8.78 µM with UO-31 renal; 16.6 µM in the assay on KM12 colon. Moreover, the GI50 in the assay on SK-MEL-28 melanoma is 7.25 µM; with OVCAR-8 ovarian, 7.46 µM; with 786-0 renal, 15.1 µM; in the assay with OVCAR-4 ovarian, 3.47 µM. Besides, the TGI is 6.63 µM in the assay with CCRF-CEM leukemia; more than 32.3 µM in the assay with LOX IMVI melanoma; 32 µM in the assay with EKVX NSCLC; 42 µM with SF-295 CNS; 25.5 µM in the assay on UO-31 renal; more than 77.4 µM with KM12 colon. For the same molecule, the TGI is 25.8 µM in the assay on SK-MEL-28 melanoma, 42.6 µM in the assay with OVCAR-8 ovarian, 32 µM with 786-0 renal and 17.3 µM in the assay with OVCAR-4 ovarian.

With `COc1ccc2[nH]cc(CCNC(C)=O)c2c1`, the TGI in the assay on CCRF-CEM leukemia, in the assay on LOX IMVI melanoma, in the assay on EKVX NSCLC, with SF-295 CNS, with UO-31 renal and in the assay on KM12 colon was more than 100 µM in each case. Moreover, the TGI in the assay on SK-MEL-28 melanoma, in the assay on OVCAR-8 ovarian, in the assay on 786-0 renal and in the assay on OVCAR-4 ovarian was more than 100 µM throughout.

As for `COc1ccc(C(=O)Cn2c(C(=O)c3ccc(OC)cc3)nc3ccccc32)cc1`, the GI50 in the assay with CCRF-CEM leukemia was 1.69 µM; in the assay with LOX IMVI melanoma it was 6.42 µM; in the assay on EKVX NSCLC it was 18.9 µM; in the assay on SF-295 CNS, 2.08 µM; in the assay on UO-31 renal, 6.27 µM; in the assay on KM12 colon it was 1.16 µM. In addition, the GI50 in the assay on SK-MEL-28 melanoma was 3 µM; in the assay on OVCAR-8 ovarian it was 5.85 µM; in the assay on 786-0 renal, 4.54 µM; with OVCAR-4 ovarian it was 5.8 µM. The TGI with CCRF-CEM leukemia was more than 42.8 µM; in the assay with LOX IMVI melanoma it was more than 100 µM; in the assay with EKVX NSCLC, more than 100 µM; in the assay with SF-295 CNS it was more than 100 µM; in the assay with UO-31 renal, more than 100 µM; in the assay on KM12 colon, more than 100 µM. Besides, the TGI with SK-MEL-28 melanoma, in the assay with OVCAR-8 ovarian, with 786-0 renal and with OVCAR-4 ovarian was more than 100 µM in each case.

For the molecule `Cc1cc2c(cc1C)NC(=O)C(NC(=O)/C=C/c1ccccc1)C=N2` (stereo unspecified), the TGI was 26 µM with CCRF-CEM leukemia; 55.3 µM with LOX IMVI melanoma; more than 100 µM in the assay on EKVX NSCLC; more than 100 µM in the assay with SF-295 CNS; more than 100 µM in the assay with UO-31 renal; 55.4 µM with KM12 colon. In addition, the TGI in the assay with SK-MEL-28 melanoma, with OVCAR-8 ovarian, in the assay with 786-0 renal and with OVCAR-4 ovarian was more than 100 µM each time.

Turning to `CCn1c(=O)c(-c2ccn[nH]2)cc2c(C)nc(N)nc21`, the GI50 with CCRF-CEM leukemia was 1.68 µM; in the assay with LOX IMVI melanoma, 1.73 µM; with EKVX NSCLC it was 0.691 µM; with SF-295 CNS, 0.559 µM; in the assay with UO-31 renal, 0.291 µM; with KM12 colon, 3.3 µM. Also, the GI50 in the assay on SK-MEL-28 melanoma was 0.97 µM; with OVCAR-8 ovarian, 2.51 µM; with 786-0 renal, 0.511 µM; in the assay with OVCAR-4 ovarian, 1.25 µM. The TGI was more than 100 µM with CCRF-CEM leukemia; 14.4 µM with LOX IMVI melanoma; 11.1 µM with EKVX NSCLC; 3.68 µM in the assay with SF-295 CNS; 3.72 µM in the assay with UO-31 renal; more than 100 µM in the assay on KM12 colon. Further, the TGI in the assay with SK-MEL-28 melanoma amounted to 6.13 µM; in the assay on OVCAR-8 ovarian, 61.7 µM; in the assay with 786-0 renal, 5.59 µM; in the assay with OVCAR-4 ovarian it was 44 µM.
